Species: Rattus norvegicus
Assay: DrugMatrix - Regimen: Daily Repeat
Assay type: toxicity, organism-based, Sprague-Dawley
Parameters: regimen Daily Repeat, gender Male, age 6-8 weeks
Conditions: in vivo, po, route oral GAVAGE, […]; for ALKALINE PHOSPHATASE / ASPARTATE AMINOTRANSFERASE / BLOOD UREA NITROGEN / CARBON DIOXIDE / CHLORIDE / CHOLESTEROL / CREATINE PHOSPHOKINASE / CREATININE / GLUCOSE / LACTATE DEHYDROGENASE / LIPASE / PHOSPHORUS / POTASSIUM / SODIUM / TOTAL BILIRUBIN / TOTAL PROTEIN / URIC ACID / ALANINE AMINOTRANSFERASE / ALBUMIN: tissue Plasma; for BASOPHIL / EOSINOPHIL / ERYTHROCYTE COUNT / HEMATOCRIT / HEMOGLOBIN / LEUKOCYTE COUNT / LYMPHOCYTE / MEAN CORPUSCULAR HEMOGLOBIN / MEAN CORPUSCULAR HEMOGLOBIN CONCENTRATION / MEAN CORPUSCULAR VOLUME / MONOCYTE / NEUTROPHIL / PLATELET COUNT / ABSOLUTE BASOPHIL / ABSOLUTE EOSINOPHIL / ABSOLUTE LYMPHOCYTE / ABSOLUTE MONOCYTE / ABSOLUTE SEGMENTED NEUTROPHIL / NUCLEATED RED BLOOD CELLS: tissue Blood
[1] = 23 mg/kg, 120 h, dose level Low, time 5 day
[2] = 23 mg/kg, dose level High, time 28 day
[3] = 64 mg/kg, 72 h, dose level M1, time 3 day
[4] = 64 mg/kg, 120 h, dose level M1, time 5 day

With `CC1=C(CC(=O)O)c2cc(F)ccc2/C1=C\c1ccc([S+](C)[O-])cc1` (stereo unspecified) the “ALKALINE PHOSPHATASE” value [1] was 330 u/L, the “ASPARTATE AMINOTRANSFERASE” value [1] was 79.33 u/L and the “BLOOD UREA NITROGEN” value [1] was 14.33 mg/dL. The “CARBON DIOXIDE” value [1] was 29.33 mmol/L, the CHLORIDE [1] was 100.67 MEQ/L and the CHOLESTEROL [1] was 85 mg/dL. The “CREATINE PHOSPHOKINASE” value [1] was 210.67 u/L, the CREATININE [1] was 0.2 mg/dL and the GLUCOSE [1] was 156 mg/dL. The “LACTATE DEHYDROGENASE” value [1] was 80 u/L, the LIPASE [1] was 11.67 u/L and the PHOSPHORUS [1] was 10.87 mg/dL. For the same compound, the POTASSIUM [1] was 5.36 MEQ/L, the SODIUM [1] was 146.07 MEQ/L and the “TOTAL BILIRUBIN” value [1] was 0.17 mg/dL. The “TOTAL PROTEIN” value [1] was 6.1 G/DL, the “URIC ACID” value [1] was 0.77 mg/dL and the BASOPHIL [2] was 0.35%. The EOSINOPHIL [2] was 0.51%, the “ERYTHROCYTE COUNT” value [2] was 8.35 x10E6/uL and the HEMATOCRIT [2] was 50.37%. For the same compound, the HEMOGLOBIN [2] was 16.23 G/DL, the “LEUKOCYTE COUNT” value [2] was 13.2 x10E3/uL and the LYMPHOCYTE [2] was 85.99%. The “MEAN CORPUSCULAR HEMOGLOBIN” value [2] was 19.47 pg, the “MEAN CORPUSCULAR HEMOGLOBIN CONCENTRATION” value [2] was 32.25 G/DL and the “MEAN CORPUSCULAR VOLUME” value [2] was 60.4 fL. For the same compound, the MONOCYTE [2] was 1.36%, the NEUTROPHIL [2] was 10.23% and the “PLATELET COUNT” value [2] was 1228.2 x10E3/uL. The “ALANINE AMINOTRANSFERASE” value [2] was 29 u/L, the ALBUMIN [2] was 3.94 G/DL and the “ALKALINE PHOSPHATASE” value [2] was 227.1 u/L. The “ASPARTATE AMINOTRANSFERASE” value [2] was 60.9 u/L, the “BLOOD UREA NITROGEN” value [2] was 12.3 mg/dL and the CHLORIDE [2] was 106.6 MEQ/L. The CHOLESTEROL [2] was 55 mg/dL, the “CREATINE PHOSPHOKINASE” value [2] was 162.4 u/L and the CREATININE [2] was 0.52 mg/dL. The GLUCOSE [2] was 134.2 mg/dL, the PHOSPHORUS [2] was 11.59 mg/dL and the POTASSIUM [2] was 6.38 MEQ/L. For the same compound, the SODIUM [2] was 153.3 MEQ/L, the “TOTAL BILIRUBIN” value [2] was 0.22 mg/dL and the “TOTAL PROTEIN” value [2] was 6.6 G/DL. The “ABSOLUTE BASOPHIL” value [3] was 0 CELLS/uL, the “ABSOLUTE EOSINOPHIL” value [3] was 0 CELLS/uL and the “ABSOLUTE LYMPHOCYTE” value [3] was 23014.33 CELLS/uL. The “ABSOLUTE MONOCYTE” value [3] was 921.67 CELLS/uL, the “ABSOLUTE SEGMENTED NEUTROPHIL” value [3] was 4264 CELLS/uL and the BASOPHIL [3] was 0%. For the same compound, the EOSINOPHIL [3] was 0%, the “ERYTHROCYTE COUNT” value [3] was 5.01 x10E6/uL and the HEMATOCRIT [3] was 31.37%. The HEMOGLOBIN [3] was 12.4 G/DL, the “LEUKOCYTE COUNT” value [3] was 28.2 x10E3/uL and the LYMPHOCYTE [3] was 80.67%. The “MEAN CORPUSCULAR HEMOGLOBIN” value [3] was 24.8 pg, the “MEAN CORPUSCULAR HEMOGLOBIN CONCENTRATION” value [3] was 39.53 G/DL and the “MEAN CORPUSCULAR VOLUME” value [3] was 62.6 fL. The MONOCYTE [3] was 3.33%, the NEUTROPHIL [3] was 16% and the “NUCLEATED RED BLOOD CELLS” value [3] was 0 /100WBC. The “PLATELET COUNT” value [3] was 1053 x10E3/uL, the “ALANINE AMINOTRANSFERASE” value [3] was 55.67 u/L and the ALBUMIN [3] was 3.33 G/DL. For the same compound, the “ALKALINE PHOSPHATASE” value [3] was 252 u/L, the “ASPARTATE AMINOTRANSFERASE” value [3] was 68 u/L and the “BLOOD UREA NITROGEN” value [3] was 9 mg/dL. For the same compound, the “CARBON DIOXIDE” value [3] was 22.33 mmol/L, the CHLORIDE [3] was 105 MEQ/L and the CHOLESTEROL [3] was 84.33 mg/dL. The “CREATINE PHOSPHOKINASE” value [3] was 173.33 u/L, the CREATININE [3] was 0.16 mg/dL and the GLUCOSE [3] was 162.67 mg/dL. The “LACTATE DEHYDROGENASE” value [3] was 160.33 u/L, the LIPASE [3] was 10.33 u/L and the PHOSPHORUS [3] was 9.7 mg/dL. The POTASSIUM [3] was 6.43 MEQ/L, the SODIUM [3] was 144.3 MEQ/L and the “TOTAL BILIRUBIN” value [3] was 0.17 mg/dL. The “TOTAL PROTEIN” value [3] was 5.17 G/DL, the “URIC ACID” value [3] was 1.37 mg/dL and the “ABSOLUTE BASOPHIL” value [4] was 0 CELLS/uL. The “ABSOLUTE EOSINOPHIL” value [4] was 0 CELLS/uL, the “ABSOLUTE LYMPHOCYTE” value [4] was 11762.67 CELLS/uL and the “ABSOLUTE MONOCYTE” value [4] was 305.67 CELLS/uL. The “ABSOLUTE SEGMENTED NEUTROPHIL” value [4] was 2898.33 CELLS/uL, the BASOPHIL [4] was 0% and the EOSINOPHIL [4] was 0%. The “ERYTHROCYTE COUNT” value [4] was 4.62 x10E6/uL, the HEMATOCRIT [4] was 30.03% and the HEMOGLOBIN [4] was 11.8 G/DL. For the same compound, the “LEUKOCYTE COUNT” value [4] was 14.97 x10E3/uL, the LYMPHOCYTE [4] was 78.67% and the “MEAN CORPUSCULAR HEMOGLOBIN” value [4] was 25.5 pg. For the same compound, the “MEAN CORPUSCULAR HEMOGLOBIN CONCENTRATION” value [4] was 39.3 G/DL, the “MEAN CORPUSCULAR VOLUME” value [4] was 64.87 fL and the MONOCYTE [4] was 2%. For the same compound, the NEUTROPHIL [4] was 19.33%, the “NUCLEATED RED BLOOD CELLS” value [4] was 0 /100WBC and the “PLATELET COUNT” value [4] was 1198 x10E3/uL. The “ALANINE AMINOTRANSFERASE” value [4] was 48.67 u/L, the ALBUMIN [4] was 3.57 G/DL and the “ALKALINE PHOSPHATASE” value [4] was 225.67 u/L. For the same compound, the “ASPARTATE AMINOTRANSFERASE” value [4] was 64.67 u/L, the “BLOOD UREA NITROGEN” value [4] was 11 mg/dL and the “CARBON DIOXIDE” value [4] was 31.67 mmol/L. The CHLORIDE [4] was 101.33 MEQ/L, the CHOLESTEROL [4] was 88.33 mg/dL and the “CREATINE PHOSPHOKINASE” value [4] was 237.33 u/L. For the same compound, the CREATININE [4] was 0.18 mg/dL, the GLUCOSE [4] was 174.67 mg/dL and the “LACTATE DEHYDROGENASE” value [4] was 137.33 u/L. The LIPASE [4] was 10.67 u/L, the PHOSPHORUS [4] was 10.57 mg/dL and the POTASSIUM [4] was 5.08 MEQ/L. For the same compound, the SODIUM [4] was 146.77 MEQ/L, the “TOTAL BILIRUBIN” value [4] was 0.13 mg/dL and the “TOTAL PROTEIN” value [4] was 5.57 G/DL. For the same compound, the “URIC ACID” value [4] was 0.5 mg/dL.
